The values that follow come from ChEMBL document CHEMBL5634191, “Vinylpyridine as a Tunable Covalent Warhead Targeting C797 in EGFR” (ACS Med Chem Lett, 2024).

The data set in a line: Lipophilicity, log D of the compound at pH 7.4. The note with it: buffer. It counts as physicochemical.
Compound `COC/C=C/c1cc(Oc2cc3c(Nc4cccc(Cl)c4F)ncnc3cc2OC)ccn1` came in with a logD of 4.2.
Compound `C=Cc1ccnc(Oc2cc3c(Nc4cccc(Cl)c4F)ncnc3cc2OC)c1` came in with a logD of 4.6.
With `C=Cc1cccc(Oc2cc3c(Nc4cccc(Cl)c4F)ncnc3cc2OC)n1` the figure was 4.6; with `COc1cc2ncnc(Nc3cccc(Cl)c3F)c2cc1Oc1ccnc(/C=C/CN2CCOCC2)c1`, 3.8.
Compound `CN(C)C/C=C/C(=O)Nc1cc2c(Nc3ccc(F)c(Cl)c3)ncnc2cc1O[C@H]1CCOC1` [AFATINIB] returned a logD of 3.6.
In turn, `C=C(C)c1cc(Oc2cc3c(Nc4cccc(Cl)c4F)ncnc3cc2OC)ccn1` displayed a logD of 4.6.
With `COc1cc2ncnc(Nc3ccc(F)c(Cl)c3)c2cc1OCCCN1CCOCC1` [GEFITINIB], the log distribution coefficient (logD) came to 3.8.
Take `C=CC(=O)N1CCC(Oc2cc3c(Nc4ccc(Cl)c(Cl)c4F)ncnc3cc2OC)CC1` [POZIOTINIB]: the logD came to 4.3.
